This is an account of results in patent US9260439B2, “Dihydropyrrolopyrimidine derivatives” (PFIZER INC., priority 2014, dated 2016).

In the test the target is full-length PI3Kα (full-length p110α/p85α) (Homo sapiens (Human), UniProt P42336). Description: PI3KA_FL fluorescence polarization kinase assay (Ki). The conditions noted are these: 41 μM ATP. The class given is biochemical. The source says: Enzyme Production for Biochemical Assays: 1) PI3Kα Complex (Full Length p110α and p85α)(“PI3KA_FL”)
Sequence of full-length PI3Kα (full-length p110α/p85α) (P42336 whole entry): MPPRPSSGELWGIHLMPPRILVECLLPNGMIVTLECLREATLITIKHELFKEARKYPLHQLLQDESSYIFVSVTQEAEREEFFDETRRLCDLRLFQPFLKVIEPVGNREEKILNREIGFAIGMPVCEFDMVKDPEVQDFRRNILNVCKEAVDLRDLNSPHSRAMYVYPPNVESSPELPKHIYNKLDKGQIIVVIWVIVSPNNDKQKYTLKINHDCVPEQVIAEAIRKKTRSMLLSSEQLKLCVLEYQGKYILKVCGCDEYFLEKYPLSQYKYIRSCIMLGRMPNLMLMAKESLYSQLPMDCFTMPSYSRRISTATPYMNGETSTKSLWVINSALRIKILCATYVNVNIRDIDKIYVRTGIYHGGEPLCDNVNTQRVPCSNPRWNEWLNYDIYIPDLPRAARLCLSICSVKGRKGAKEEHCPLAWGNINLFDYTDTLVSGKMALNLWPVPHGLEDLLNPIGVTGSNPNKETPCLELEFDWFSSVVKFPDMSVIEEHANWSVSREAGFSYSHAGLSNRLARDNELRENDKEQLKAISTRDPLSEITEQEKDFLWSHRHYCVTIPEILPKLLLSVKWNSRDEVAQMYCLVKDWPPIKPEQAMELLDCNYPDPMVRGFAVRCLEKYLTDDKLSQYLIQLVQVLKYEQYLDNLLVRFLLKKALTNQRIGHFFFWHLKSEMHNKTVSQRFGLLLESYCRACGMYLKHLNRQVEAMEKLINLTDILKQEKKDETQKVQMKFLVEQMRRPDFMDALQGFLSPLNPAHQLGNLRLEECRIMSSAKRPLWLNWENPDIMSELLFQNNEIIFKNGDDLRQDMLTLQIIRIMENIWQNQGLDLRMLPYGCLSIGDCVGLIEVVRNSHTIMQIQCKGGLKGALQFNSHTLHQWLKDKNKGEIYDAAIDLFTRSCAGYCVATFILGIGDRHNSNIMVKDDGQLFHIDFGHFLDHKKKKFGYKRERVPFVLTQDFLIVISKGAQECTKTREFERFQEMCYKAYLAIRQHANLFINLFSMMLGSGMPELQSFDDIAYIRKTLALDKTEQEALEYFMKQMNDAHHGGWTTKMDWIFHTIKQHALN
Sequence of full-length PI3Kα (full-length p110α/p85α) (P27986 whole entry partner): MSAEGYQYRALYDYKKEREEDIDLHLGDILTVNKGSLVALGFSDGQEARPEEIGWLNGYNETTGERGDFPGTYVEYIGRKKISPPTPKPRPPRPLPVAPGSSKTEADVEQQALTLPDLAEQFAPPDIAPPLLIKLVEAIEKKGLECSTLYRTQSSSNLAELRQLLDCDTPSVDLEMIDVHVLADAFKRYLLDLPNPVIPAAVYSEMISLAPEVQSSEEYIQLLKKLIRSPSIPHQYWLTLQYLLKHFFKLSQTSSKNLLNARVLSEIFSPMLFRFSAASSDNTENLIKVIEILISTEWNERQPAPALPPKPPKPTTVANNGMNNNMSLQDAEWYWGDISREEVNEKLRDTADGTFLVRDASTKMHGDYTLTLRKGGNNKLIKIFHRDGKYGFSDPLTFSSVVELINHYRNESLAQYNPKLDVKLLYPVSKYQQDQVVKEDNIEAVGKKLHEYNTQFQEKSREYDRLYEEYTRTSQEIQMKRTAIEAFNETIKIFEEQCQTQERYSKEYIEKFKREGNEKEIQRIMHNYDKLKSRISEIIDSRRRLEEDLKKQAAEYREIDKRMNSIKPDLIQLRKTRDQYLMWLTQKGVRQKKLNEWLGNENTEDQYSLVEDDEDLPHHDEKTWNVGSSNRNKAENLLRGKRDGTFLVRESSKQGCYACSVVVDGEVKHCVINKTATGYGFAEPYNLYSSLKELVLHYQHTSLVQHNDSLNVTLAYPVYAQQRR
Genes encoding for full length p110α and p85α subunits of PI3Kα complex were subcloned from existing constructs into pFASTBAC Dual vector (Life Technologies, Carlsbad, Calif.) using standard cloning procedures. Gene encoding p110α subunit was subcloned into polyhedrine promoter while gene encoding p85α subunit was subcloned into p10 promoter. Additionally, sequence encoding for histidine tag and Tobacco Etch Virus (“TEV”) cleavage site preceded p110α ORF (Open Reading Frame). Recombinant baculovirus was generated using Bac-to-Bac protocol (Life Technologies, Carlsbad, Calif.) and large scale expression was conducted in Sf21 (Life Technologies, Carlsbad, Calif.) cells at a multiplicity of infection (“MOI”)=1 for 72 hours. Cells were lyzed in 50 mM Tris pH 8.0, 250 mM NaCl, 5% glycerol, 0.25 mM TCEP, and 20 mM imidazole. The PI3Kα complex was purified from clarified supernatant using Immobilized Metalo Affinity Chromatography (“IMAC”). The protein was eluted from the column using 50 mM Tris pH 8.0, 200 mM NaCl, 5% glycerol, 0.25 mM TCEP, and 200 mM imidazole, and further desalted into 50 mM Tris pH 8.0, 20 mM NaCl, and 0.25 mM TCEP prior to loading on MonoQ sepharose (GE Healthcare, Piscataway, N.J.). PI3Kα complex was eluted from MonoQ sepharose over 20 column volumes using 0-30% gradient of buffer B (50 mM Tris pH 8.0, 1 M NaCl, and 0.25 mM TCEP). The peak fractions were pulled together and loaded on Superdex 200 26/60 SEC column equilibrated in 50 mM Tris pH 8.0, 200 mM NaCl, and 0.5 mM TCEP. […] Purity and integrity of the complex was confirmed using LCMS, analytical SEC and SDS-PAGE (sodium dodecyl sulfate polyacrylamide gel electrophoresis) analysis.
The biochemical assays of kinase activity of full-length PI3Kα (full-length p110α/p85a) or truncated PI3Kα (p110α/iSH2 p85a) were conducted using a fluorescence polarization format similar to the procedure of Yuan J., et al., (2011) “PF-04691502, a Potent and Selective Oral Inhibitor of PI3K and mTOR Kinases with Antitumor Activity”, Mol Cancer Ther. 10, 2189-2199. The enzymatic reactions were conducted in 50 μL volumes in 96-well plates. The reactions contained human recombinant PI3Kα (2 nM full-length p110α/p85α or 0.5 nM p110α/iSH2 p85) and 30 μM phosphatidylinositol 4,5-bisphosphate (“PIP2”) (Cayman Chemical Company, Ann Arbor, Mich.) and were sonicated for 1 minute prior to adding PI3Kα enzyme (PI3KA_Act or PI3KA_FL), DMSO or test compound (12-point 3-fold serial dilution, 3 μM top dose, 2° A) DMSO final concentration), 5 mM MgCl2, 50 mM HEPES pH 7.4, 150 mM NaCl, 1 mM DTT ((2S,3S)-1,4-bis(sulfanyl)butane-2,3-diol), and 0.05% 3-[(3-cholamidopropyl)dimethylammonio]-1-propanesulfonate (“CHAPS”). […] The reactions were incubated for 30 min at room temperature, stopped with EDTA pH 8 (10 mM final concentration). In a detection plate, 15 μL of detector/probe mixture, containing 480 nM GST-Grp1 PH domain protein (University of Dundee, Dundee, UK) and 12 nM carboxytetramethylrhodamine (“TAMRA”)-tagged fluorescent phosphatidylinositol (3,4,5)-triphosphate (“PIP3”) (Echelon Biosciences, Inc., Salt Lake City, Utah) in assay buffer, was mixed with 15 μL of kinase reaction mixture. The plate was shaken for 30 minutes and fluorescence polarization values were measured on an LJL Analyst HT plate reader (Molecular Devices, Sunnyvale, Calif.). […] The inhibition constants (Ki) were calculated by fitting fluorescence polarization values, corresponding to initial reaction rates, to the Morrison equation (Morrison, J. F. (1969) Kinetics of the reversible inhibition of enzyme catalysed reactions by tight-binding inhibitors. Biochim. Biophys. Acta 185, 269-286) for tight-binding competitive inhibitors using non-linear regression method (GraphPad Prism, GraphPad Software, San Diego, Calif.).
In the case of `CS(=O)(=O)[C@H]1CC[C@@H](N2CCc3c(-c4cnc(N)nc4)nc(N4CCOCC4)nc32)C1` [Example 114], the “PI3KA_FL Ki” value was found to be 1.268 nM.
Same read-out and setting: the value for `COC(=O)N1CC[C@H](N2CCc3c(-c4cnc(N)nc4)nc(N4CCOCC4)nc32)C1` [Example 28] was 0.521 nM; that for `CC(=O)N[C@@H]1CC[C@H]1N1CCc2c(-c3cnc(N)nc3)nc(N3CCOCC3)nc21` [Example 50] was 18.596 nM; that for `C[C@H]1COCCN1c1nc(-c2cnc(N)nc2)c2c(n1)N([C@H]1CCC(F)(F)C1)CC2` (single isomer, unassigned) [Example 89] was 1.247 nM.
Still for that read-out and setting: for `CO[C@H]1CC[C@H](N2CCc3c(-c4cnc(N)nc4)nc(N4CCOCC4)nc32)CC1` [Example 36] the value was 19.031 nM; for `NC(=O)N1CC(N2CCc3c(-c4cnc(N)nc4)nc(N4CCOCC4)nc32)C1` [Example 86], 3.673 nM; for `CO[C@H]1C[C@H](N2CCc3c(-c4cnc(N)nc4)nc(N4CCOCC4)nc32)C1` [Example 40], 0.416 nM.
Take `Nc1ncc(-c2nc(N3CCOCC3)nc3c2CCN3[C@H]2C[C@H](O)C2)cn1` [Example 24]: the “PI3KA_FL Ki” value turned out to be 0.961 nM.
Regarding `C[C@H]1COCCN1c1nc(-c2cnc(N)nc2)c2c(n1)N([C@@H]1CCC(F)(F)C1)CC2` (single isomer, unassigned) [Example 88], the “PI3KA_FL Ki” value amounted to 0.674 nM.
Consider `CC(=O)N[C@H]1C[C@H](N2CCc3c(-c4cnc(N)nc4)nc(N4CCOCC4)nc32)C1` [Example 29], for which the “PI3KA_FL Ki” value worked out at 5.828 nM.
Turning to `CO[C@@H]1CN(C(C)=O)C[C@H]1N1CCc2c(-c3cnc(N)nc3)nc(N3CCOC[C@@H]3C)nc21` [Example 98], the “PI3KA_FL Ki” value came to 1.244 nM.
On the same count and under the same terms, for `CC(=O)N[C@H]1C[C@@H](N2CCc3c(-c4cnc(N)nc4)nc(N4CCOCC4)nc32)C1` [Example 23] the value was 9.696 nM.
`CC(C)[C@@H](O)C(=O)N(C)[C@H]1C[C@H](N2CCc3c(-c4cnc(N)nc4)nc(N4CCOC[C@@H]4C)nc32)C1` [Example 94]: the “PI3KA_FL Ki” value was 2.371 nM.
Same read-out and setting: the value for `Nc1ncc(-c2nc(N3CCOCC3)nc3c2CCN3[C@H]2C[C@@H](F)C2)cn1` [Example 64] was 0.508 nM; that for `C[C@]1(O)C[C@H](N2CCc3c(-c4cnc(N)nc4)nc(N4CCOCC4)nc32)C1` [Example 39] was 0.738 nM.
As to `C[C@H]1COCCN1c1nc(-c2cnc(N)nc2)c2c(n1)N([C@@H]1CCN(S(C)(=O)=O)C1)CC2` [Example 83], the “PI3KA_FL Ki” value was found to be 0.761 nM.
Take `Nc1ncc(-c2nc(N3CCOCC3)nc3c2CCN3[C@H]2CCN(C(=O)CO)C2)cn1` [Example 25]: the “PI3KA_FL Ki (nM)” value was “≦0.229 nM”.
With `Nc1ncc(-c2nc(N3CCOCC3)nc3c2CCN3[C@H]2CCNC(=O)C2)cn1` [Example 78], the “PI3KA_FL Ki” value is on record as 14.681 nM.
On the same count and under the same terms, for `Nc1ncc(-c2nc(N3CCOCC3)nc3c2CCN3[C@@H]2CCCOC2)cn1` [Example 48] the value was 3.543 nM; for `CNS(=O)(=O)N1CC[C@@H](N2CCc3c(-c4cnc(N)nc4)nc(N4CCOCC4)nc32)C1` [Example 81], 0.788 nM; for `C[C@@H](O)C(=O)N1CC[C@H](N2CCc3c(-c4cnc(N)nc4)nc(N4CCOCC4)nc32)C1` [Example 41], 1.376 nM.
On the same count and under the same terms, for `CC(=O)N1C[C@H](C(F)F)[C@H](N2CCc3c(-c4cnc(N)nc4)nc(N4CCOCC4)nc32)C1` [Example 56] the value was 35.745 nM.
Same read-out and setting: the value for `Nc1ncc(-c2nc(N3CCOCC3)nc3c2CCN3[C@@H]2CCNC(=O)C2)cn1` [Example 77] was 8.025 nM; that for `C[C@]1(O)C[C@@H](N2CCc3c(-c4cnc(N)nc4)nc(N4CCOCC4)nc32)C1` [Example 44] was 1.965 nM.
For `C[C@H]1COCCN1c1nc(-c2cnc(N)nc2)c2c(n1)N([C@@H]1CN(S(N)(=O)=O)C[C@H]1O)CC2` [Example 127], the “PI3KA_FL Ki” value was 0.789 nM.
The same measure, in the same setting: for `Nc1ncc(-c2nc(N3CCOCC3)nc3c2CCN3[C@H]2CCN(C=O)C2)cn1` [Example 43] the value was 1.310 nM; for `CS(=O)(=O)N1CC[C@@H](N2CCc3c(-c4cnc(N)nc4)nc(N4CCOCC4)nc32)C1` [Example 80], 1.247 nM.
On the same count and under the same terms, for `C[C@H](O)C(=O)N1CC[C@H](N2CCc3c(-c4cnc(N)nc4)nc(N4CCOCC4)nc32)C1` [Example 30] the value was 1.188 nM; for `CC(=O)N1C[C@@H](N2CCc3c(-c4cnc(N)nc4)nc(N4CCOCC4)nc32)[C@@H](F)C1` (single isomer, unassigned) [Example 75], 1.106 nM.
For the compound `CC(=O)N1CC(N2CCc3c(-c4cnc(N)nc4)nc(N4CCOCC4)nc32)C1` [Example 33], the “PI3KA_FL Ki” value amounted to 5.195 nM.
Same read-out and setting: for `CC(=O)N1C[C@@H](C(F)F)[C@@H](N2CCc3c(-c4cnc(N)nc4)nc(N4CCOCC4)nc32)C1` [Example 60] the value was 27.752 nM.
For the compound `CC(C)N1CCc2c(-c3cnc(N)nc3)nc(N3CCOCC3)nc21` [Example 134], the “PI3KA_FL Ki” value is listed as 3.883 nM.
On the same count and under the same terms, for `CC(=O)N1C[C@@H](C)[C@@H](N2CCc3c(-c4cnc(N)nc4)nc(N4CCOCC4)nc32)C1` [Example 68] the value was 9.393 nM.
In the case of `CC(=O)N1C[C@H](F)[C@@H](N2CCc3c(-c4cnc(N)nc4)nc(N4CCOCC4)nc32)C1` (single isomer, unassigned) [Example 67], the “PI3KA_FL Ki” value is 1.899 nM.
As to `Nc1ncc(-c2nc(N3CCOCC3)nc3c2CCN3[C@H]2C[C@H](F)C2)cn1` [Example 65], the “PI3KA_FL Ki (nM)” value was “≦0.229 nM”.
Consider `CO[C@@H]1CN(S(C)(=O)=O)C[C@H]1N1CCc2c(-c3cnc(N)nc3)nc(N3CCOC[C@@H]3C)nc21` [Example 103], for which the “PI3KA_FL Ki” value worked out at 0.557 nM.
The same measure, in the same setting: for `CS(=O)(=O)N1CCC[C@H](N2CCc3c(-c4cnc(N)nc4)nc(N4CCOCC4)nc32)C1` [Example 99] the value was 2.122 nM.
As for `CNS(=O)(=O)[C@H]1CC[C@@H](N2CCc3c(-c4cnc(N)nc4)nc(N4CCOCC4)nc32)C1` [Example 130], the “PI3KA_FL Ki” value is recorded as 0.352 nM.
Same read-out and setting: the value for `CC(C)[C@H](O)C(=O)N1CC[C@H](N2CCc3c(-c4cnc(N)nc4)nc(N4CCOCC4)nc32)C1` [Example 32] was 0.841 nM.
On the same count and under the same terms, the value for `CC(=O)N1CC[C@@H](N2CCc3c(-c4cnc(N)nc4)nc(N4CCOCC4)nc32)C1` [Example 11] was 4.095 nM.
As to `CC(C)[C@@H](O)C(=O)N1CC[C@H](N2CCc3c(-c4cnc(N)nc4)nc(N4CCOCC4)nc32)C1` [Example 31], the “PI3KA_FL Ki (nM)” value is on record as “≦0.229 nM”.
Still for that read-out and setting: the value for `CN([C@H]1C[C@H](N2CCc3c(-c4cnc(N)nc4)nc(N4CCOCC4)nc32)C1)S(C)(=O)=O` [Example 22] was “≦0.229 nM”.
Turning to `C[C@H]1COCCN1c1nc(-c2cnc(N)nc2)c2c(n1)N(C1CC(F)(F)C1)CC2` [Example 87], the “PI3KA_FL Ki” value is given as 0.462 nM.
Turning to `CS(=O)(=O)N[C@H]1C[C@@H](N2CCc3c(-c4cnc(N)nc4)nc(N4CCOCC4)nc32)C1` [Example 107], the “PI3KA_FL Ki” value came out at 1.388 nM.
The same measure, in the same setting: the value for `CC(=O)N1C[C@@H](N2CCc3c(-c4cnc(N)nc4)nc(N4CCOCC4)nc32)[C@H](C(F)F)C1` [Example 63] was 6.612 nM.
